Assay results taken from paper PMC5218480 (PLoS ONE, 2017).

Tested on: MV-4-11 cells
Assay: Gene expression microarray analysis (Affymetrix PrimeView) and GSEA
Assay type: cell-based, human
Design: RFU PODN (11730768_x_at) / Fold change /veh PODN (11730768_x_at) / RFU LINC00158 (11744669_a_at) / Fold change /veh LINC00158 (11744669_a_at) / RFU DUSP10 (11751237_a_at) / Fold change /veh DUSP10 (11751237_a_at) / RFU ID3 (11757404_x_at) / Fold change /veh ID3 (11757404_x_at) / RFU PLEKHG5 (11737974_s_at) / Fold change /veh PLEKHG5 (11737974_s_at) / RFU LRRC4B (11730491_at) / Fold change /veh LRRC4B (11730491_at) / RFU GIMAP4 (11747438_a_at) / Fold change /veh GIMAP4 (11747438_a_at) / RFU KRT8 (11758183_x_at) / Fold change /veh KRT8 (11758183_x_at) / RFU CNN1 (11734310_a_at) / Fold change /veh CNN1 (11734310_a_at) / RFU VPS37D (11726825_at) / Fold change /veh VPS37D (11726825_at) / RFU C10orf10 (11716522_x_at) / Fold change /veh C10orf10 (11716522_x_at) / RFU KIR2DL2 /// KIR2DL4 /// KIR2DL5A /// KIR2DL5B /// KIR2DS1 /// KIR2DS2 /// KIR2DS3 /// KIR2DS4 /// KIR3DL3 /// KIR3DL3 /// KIR3DS1 (11738374_at) / Fold change /veh KIR2DL2 /// KIR2DL4 /// KIR2DL5A /// KIR2DL5B /// KIR2DS1 /// KIR2DS2 /// KIR2DS3 /// KIR2DS4 /// KIR3DL3 /// KIR3DL3 /// KIR3DS1 (11738374_at) / RFU C1QL1 (11718748_at) / Fold change /veh C1QL1 (11718748_at) / RFU TMPRSS4 (11747572_a_at) / Fold change /veh TMPRSS4 (11747572_a_at) / RFU HAMP (11756126_x_at) / Fold change /veh HAMP (11756126_x_at) / RFU RNFT2 (11725882_a_at) / Fold change /veh RNFT2 (11725882_a_at) / RFU NR4A2 (11747474_a_at) / Fold change /veh NR4A2 (11747474_a_at) / RFU ABCC12 (11746883_a_at) / Fold change /veh ABCC12 (11746883_a_at) / RFU TMEM136 (11760407_x_at) / Fold change /veh TMEM136 (11760407_x_at) / RFU CLDN22 /// WWC2 (11732394_at) / Fold change /veh CLDN22 /// WWC2 (11732394_at) / RFU HLA-DPB1 (11760878_x_at) / Fold change /veh HLA-DPB1 (11760878_x_at) / RFU SPINT1 (11716480_a_at) / Fold change /veh SPINT1 (11716480_a_at) / RFU GAP43 (11754022_s_at) / Fold change /veh GAP43 (11754022_s_at) / RFU A4GNT (11735810_at) / Fold change /veh A4GNT (11735810_at) / RFU PRB3 (11715151_x_at) / Fold change /veh PRB3 (11715151_x_at) / RFU TUBB4B (11761932_at) / Fold change /veh TUBB4B (11761932_at) / RFU CAPN14 (11732068_a_at) / Fold change /veh CAPN14 (11732068_a_at) / RFU TMCC2 (11721928_a_at) / Fold change /veh TMCC2 (11721928_a_at) / RFU IRGQ (11745062_a_at) / Fold change /veh IRGQ (11745062_a_at) / RFU FAM174B (11720279_a_at) / Fold change /veh FAM174B (11720279_a_at) / RFU TMPRSS4 (11748680_a_at) / Fold change /veh TMPRSS4 (11748680_a_at) / RFU FAM212B (11763350_a_at) / Fold change /veh FAM212B (11763350_a_at) / RFU PLEKHG5 (11743358_a_at) / Fold change /veh PLEKHG5 (11743358_a_at) / RFU ZSCAN30 (11745921_a_at) / Fold change /veh ZSCAN30 (11745921_a_at) / RFU CMKLR1 (11741424_a_at) / Fold change /veh CMKLR1 (11741424_a_at) / RFU LOC101060620 /// MAPK8IP1 (11723275_at) / Fold change /veh LOC101060620 /// MAPK8IP1 (11723275_at) / RFU SPTSSB (11747773_x_at) / Fold change /veh SPTSSB (11747773_x_at) / RFU PRSS12 (11739890_at) / Fold change /veh PRSS12 (11739890_at) / RFU BIN1 (11741810_x_at) / Fold change /veh BIN1 (11741810_x_at) / RFU WNT11 (11732464_a_at) / Fold change /veh WNT11 (11732464_a_at) / RFU C10orf10 (11716521_a_at) / Fold change /veh C10orf10 (11716521_a_at) / RFU C5orf56 (11738089_at) / Fold change /veh C5orf56 (11738089_at) / RFU CYB561 (11721691_x_at) / Fold change /veh CYB561 (11721691_x_at) / RFU ANKRD19P (11752326_a_at) / Fold change /veh ANKRD19P (11752326_a_at) / RFU OR2T12 /// OR2T33 /// OR2T8 (11738714_s_at) / Fold change /veh OR2T12 /// OR2T33 /// OR2T8 (11738714_s_at) / RFU VCAN (11748164_a_at) / Fold change /veh VCAN (11748164_a_at) / RFU JSRP1 (11732532_at) / Fold change /veh JSRP1 (11732532_at) / RFU KRTAP10-11 (11738290_x_at) / Fold change /veh KRTAP10-11 (11738290_x_at) / RFU MYO3A (11730013_a_at) / Fold change /veh MYO3A (11730013_a_at) / RFU EBF3 (11725865_a_at) / Fold change /veh EBF3 (11725865_a_at) / RFU CAMK2N1 (11719241_x_at) / Fold change /veh CAMK2N1 (11719241_x_at) / RFU C5orf56 (11738088_a_at) / Fold change /veh C5orf56 (11738088_a_at) / RFU OLFML3 (11715873_a_at) / Fold change /veh OLFML3 (11715873_a_at) / RFU LOC100653217 /// NTM (11731650_a_at) / Fold change /veh LOC100653217 /// NTM (11731650_a_at) / RFU MAPK11 (11762145_a_at) / Fold change /veh MAPK11 (11762145_a_at) / RFU FIZ1 (11724087_x_at) / Fold change /veh FIZ1 (11724087_x_at) / RFU OASL (11726364_x_at) / Fold change /veh OASL (11726364_x_at) / RFU SOX15 (11748057_x_at) / Fold change /veh SOX15 (11748057_x_at) / RFU CD79A (11719716_a_at) / Fold change /veh CD79A (11719716_a_at) / RFU HIST1H1D (11736915_at) / Fold change /veh HIST1H1D (11736915_at) / RFU CASKIN2 (11723855_a_at) / Fold change /veh CASKIN2 (11723855_a_at) / RFU LOC730098 (11760151_x_at) / Fold change /veh LOC730098 (11760151_x_at) / RFU OR4N2 (11742367_at) / Fold change /veh OR4N2 (11742367_at) / RFU PRRT2 (11749266_a_at) / Fold change /veh PRRT2 (11749266_a_at) / RFU SNX32 (11753110_a_at) / Fold change /veh SNX32 (11753110_a_at) / RFU CDHR5 (11726645_a_at) / Fold change /veh CDHR5 (11726645_a_at) / RFU RCAN1 (11760418_a_at) / Fold change /veh RCAN1 (11760418_a_at) / RFU FAM167A (11723789_a_at) / Fold change /veh FAM167A (11723789_a_at) / RFU FAM26E (11764081_at) / Fold change /veh FAM26E (11764081_at) / RFU ISYNA1 (11749810_s_at) / Fold change /veh ISYNA1 (11749810_s_at) / RFU ACY1 (11761880_at) / Fold change /veh ACY1 (11761880_at) / RFU 11764098_at / Fold change /veh 11764098_at / RFU SAMD14 (11745864_x_at) / Fold change /veh SAMD14 (11745864_x_at) / RFU NPB (11741838_a_at) / Fold change /veh NPB (11741838_a_at) / RFU TMPRSS6 (11731388_a_at) / Fold change /veh TMPRSS6 (11731388_a_at) / RFU KRTAP10-2 (11738614_at) / Fold change /veh KRTAP10-2 (11738614_at) / RFU ARHGAP8 /// PRR5-ARHGAP8 (11727945_x_at) / Fold change /veh ARHGAP8 /// PRR5-ARHGAP8 (11727945_x_at) / RFU KRTAP5-7 /// NADSYN1 (11734609_at) / Fold change /veh KRTAP5-7 /// NADSYN1 (11734609_at) / RFU RASL12 (11751679_a_at) / Fold change /veh RASL12 (11751679_a_at) / RFU CDKN2B (11736163_a_at) / Fold change /veh CDKN2B (11736163_a_at) / RFU PRF1 (11729649_at) / Fold change /veh PRF1 (11729649_at) / RFU, ZNF638 /// ZNF638-IT1 / Fold change vs veh, ZNF638 /// ZNF638-IT1 / RFU, PANK3 / Fold change vs veh, PANK3 / RFU, SH3YL1 / Fold change vs veh, SH3YL1 / RFU, ZEB2 / Fold change vs veh, ZEB2 / RFU, NRIP1 / Fold change vs veh, NRIP1 / RFU, PTTG1IP / Fold change vs veh, PTTG1IP / RFU, CAPN2 / Fold change vs veh, CAPN2 / RFU, MED14 / Fold change vs veh, MED14 / RFU, SNORA58 / Fold change vs veh, SNORA58 / RFU, C1orf63 / Fold change vs veh, C1orf63 / RFU, LRRFIP1 / Fold change vs veh, LRRFIP1 / RFU, NDUFAF7 / Fold change vs veh, NDUFAF7 / RFU, SLC12A2 / Fold change vs veh, SLC12A2 / RFU, IBTK / Fold change vs veh, IBTK / RFU, ESF1 / Fold change vs veh, ESF1 / Fold change vs veh, TMEM50B / RFU, TAOK1 / Fold change vs veh, TAOK1 / RFU, ACBD3 / Fold change vs veh, ACBD3 / RFU, TMA16 / Fold change vs veh, TMA16 / RFU, RWDD3 / Fold change vs veh, RWDD3 / RFU, BCAT1 / Fold change vs veh, BCAT1 / RFU, EDEM3 / Fold change vs veh, EDEM3 / RFU, TMEM33 / Fold change vs veh, TMEM33 / RFU, WDR75 / Fold change vs veh, WDR75 / RFU, AHCTF1 / Fold change vs veh, AHCTF1 / RFU, TFRC / Fold change vs veh, TFRC / RFU, ZDHHC17 / Fold change vs veh, ZDHHC17 / RFU, NOM1 / Fold change vs veh, NOM1 / RFU, ARL8B / Fold change vs veh, ARL8B / RFU, ZBTB11 / Fold change vs veh, ZBTB11 / RFU, TAMM41 / Fold change vs veh, TAMM41 / RFU, KIAA1704 /// LOC100996395 / Fold change vs veh, KIAA1704 /// LOC100996395 / RFU, ING1 / Fold change vs veh, ING1 / RFU, TRMT61B / Fold change vs veh, TRMT61B / RFU, FUBP3 / Fold change vs veh, FUBP3 / RFU, TP53 / Fold change vs veh, TP53 / RFU, TNKS2 / Fold change vs veh, TNKS2 / RFU, ZFP14 / Fold change vs veh, ZFP14 / RFU, ACTR2 / Fold change vs veh, ACTR2 / RFU, PPP3R1 / Fold change vs veh, PPP3R1 / RFU, PIK3R1 / Fold change vs veh, PIK3R1 / RFU, HNRNPA1 / Fold change vs veh, HNRNPA1 / RFU, RNF170 / Fold change vs veh, RNF170 / RFU, ZNF28 / Fold change vs veh, ZNF28 / RFU, RNGTT / Fold change vs veh, RNGTT / RFU, OGT / Fold change vs veh, OGT / RFU, BRD1 / Fold change vs veh, BRD1 / RFU, MARS / Fold change vs veh, MARS / RFU, ZNF655 / Fold change vs veh, ZNF655 / RFU, FAHD1 / Fold change vs veh, FAHD1 / RFU, BDP1 / Fold change vs veh, BDP1 / RFU, LRRCC1 / Fold change vs veh, LRRCC1 / RFU, ARID1A / Fold change vs veh, ARID1A / RFU, ZNF146 / Fold change vs veh, ZNF146 / RFU, ZNF330 / Fold change vs veh, ZNF330 / RFU, GPN3 / Fold change vs veh, GPN3 / RFU, C9orf123 / Fold change vs veh, C9orf123 / RFU, N4BP2L2 / Fold change vs veh, N4BP2L2 / RFU, ARFIP1 / Fold change vs veh, ARFIP1 / RFU, FAM179B / Fold change vs veh, FAM179B / RFU, BCL10 / Fold change vs veh, BCL10 / RFU, UHRF1BP1L / Fold change vs veh, UHRF1BP1L / RFU, BET1 / Fold change vs veh, BET1 / RFU, CNOT2 / Fold change vs veh, CNOT2 / RFU, ZNF268 / Fold change vs veh, ZNF268 / Fold change vs veh, ZNF507 / RFU, DGCR2 / Fold change vs veh, DGCR2 / RFU, WDSUB1 / Fold change vs veh, WDSUB1 / Fold change vs veh, HSP90B1 /// MIR3652 / RFU, ADSS / Fold change vs veh, ADSS / RFU, GK / Fold change vs veh, GK / RFU, ZNF148 / Fold change vs veh, ZNF148 / RFU, TAF9 / Fold change vs veh, TAF9 / RFU, SLC1A5 / Fold change vs veh, SLC1A5 / RFU, SLMO2 / Fold change vs veh, SLMO2 / RFU, ABCC4 / Fold change vs veh, ABCC4 / RFU, LOC101060439 /// RAP1B / Fold change vs veh, LOC101060439 /// RAP1B / RFU, RFX7 / Fold change vs veh, RFX7 / RFU, GTPBP10 / Fold change vs veh, GTPBP10 / RFU, CNEP1R1 / Fold change vs veh, CNEP1R1 / RFU, BIVM-ERCC5 /// ERCC5 / Fold change vs veh, BIVM-ERCC5 /// ERCC5 / RFU, ILF3 / Fold change vs veh, ILF3 / RFU 11762660_at / Fold change /veh 11762660_at / RFU VCAN (11757783_s_at) / Fold change /veh VCAN (11757783_s_at) / RFU DDX43 (11728927_at) / Fold change /veh DDX43 (11728927_at) / RFU KRT8 (11758188_x_at) / Fold change /veh KRT8 (11758188_x_at) / RFU NKD1 (11759106_at) / Fold change /veh NKD1 (11759106_at) / RFU SRD5A1 (11742802_a_at) / Fold change /veh SRD5A1 (11742802_a_at) / RFU TPSAB1 /// TPSB2 (11721975_s_at) / Fold change /veh TPSAB1 /// TPSB2 (11721975_s_at) / RFU GSTM3 (11746129_a_at) / Fold change /veh GSTM3 (11746129_a_at) / RFU IL23R (11737362_x_at) / Fold change /veh IL23R (11737362_x_at) / RFU TMEM51 (11727254_a_at) / Fold change /veh TMEM51 (11727254_a_at) / RFU PIWIL2 (11732686_x_at) / Fold change /veh PIWIL2 (11732686_x_at) / RFU ORM1 (11744905_x_at) / Fold change /veh ORM1 (11744905_x_at) / RFU CCDC152 (11743942_at) / Fold change /veh CCDC152 (11743942_at) / RFU ECM1 (11717891_a_at) / Fold change /veh ECM1 (11717891_a_at) / RFU IL23R (11748794_a_at) / Fold change /veh IL23R (11748794_a_at) / RFU TNFAIP8L3 (11732012_x_at) / Fold change /veh TNFAIP8L3 (11732012_x_at) / RFU MBOAT4 (11741988_at) / Fold change /veh MBOAT4 (11741988_at) / RFU 11764193_at / Fold change /veh 11764193_at / RFU TMEM53 (11763286_at) / Fold change /veh TMEM53 (11763286_at) / RFU MAGEB2 (11727129_at) / Fold change /veh MAGEB2 (11727129_at) / RFU TMEM200A (11744735_a_at) / Fold change /veh TMEM200A (11744735_a_at) / RFU CCDC152 (11751479_a_at) / Fold change /veh CCDC152 (11751479_a_at) / RFU FAM211A (11726209_a_at) / Fold change /veh FAM211A (11726209_a_at) / RFU RGS16 (11746705_a_at) / Fold change /veh RGS16 (11746705_a_at) / RFU VCAN (11755009_s_at) / Fold change /veh VCAN (11755009_s_at) / RFU RHOB (11743442_s_at) / Fold change /veh RHOB (11743442_s_at) / RFU RGS16 (11720943_a_at) / Fold change /veh RGS16 (11720943_a_at) / RFU RGS16 (11720944_at) / Fold change /veh RGS16 (11720944_at) / RFU, VPS4B / Fold change vs veh, VPS4B / RFU, CREB1 / Fold change vs veh, CREB1 / RFU, DNAJC13 / Fold change vs veh, DNAJC13 / RFU, GNAQ / Fold change vs veh, GNAQ / RFU, CDK5R1 / Fold change vs veh, CDK5R1 / RFU, ZRANB3 / Fold change vs veh, ZRANB3 / RFU, CUL4A / Fold change vs veh, CUL4A / RFU, CCNY / Fold change vs veh, CCNY / RFU, UFL1 / Fold change vs veh, UFL1 / RFU, COG3 / Fold change vs veh, COG3 / RFU, DIAPH2 / Fold change vs veh, DIAPH2 / RFU, SKA2 / Fold change vs veh, SKA2 / RFU, AFF3 / Fold change vs veh, AFF3 / RFU, LMF1 / Fold change vs veh, LMF1 / RFU, IPO11 / Fold change vs veh, IPO11 / RFU, DFFB / Fold change vs veh, DFFB / RFU, FOXP1 / Fold change vs veh, FOXP1 / RFU, CARD8 / Fold change vs veh, CARD8 / RFU, STRN3 / Fold change vs veh, STRN3 / RFU, ADK / Fold change vs veh, ADK / RFU, RASSF2 / Fold change vs veh, RASSF2 / RFU, WIPF1 / Fold change vs veh, WIPF1 / RFU, LARP1B / Fold change vs veh, LARP1B / RFU, RASA1 / Fold change vs veh, RASA1 / RFU, RB1 / Fold change vs veh, RB1 / RFU, PPFIA1 / Fold change vs veh, PPFIA1 / RFU, MAT2A / Fold change vs veh, MAT2A / RFU, CCT5 / Fold change vs veh, CCT5 / RFU, WDR92 / Fold change vs veh, WDR92 / RFU, CUX1 / Fold change vs veh, CUX1 / RFU, TTC7A / Fold change vs veh, TTC7A / RFU, TMEM135 / Fold change vs veh, TMEM135 / RFU, DEPTOR / Fold change vs veh, DEPTOR / RFU, CPM / Fold change vs veh, CPM / RFU, DNAJB6 / Fold change vs veh, DNAJB6 / RFU, CACNA2D3 / Fold change vs veh, CACNA2D3 / RFU, DTX4 / Fold change vs veh, DTX4 / RFU, TFCP2 / Fold change vs veh, TFCP2 / RFU, GMCL1 /// GMCL1P1 / Fold change vs veh, GMCL1 /// GMCL1P1 / RFU, AEBP2 / Fold change vs veh, AEBP2 / RFU, SNHG1 /// SNORD22 /// SNORD25 /// SNORD26 /// SNORD27 /// SNORD28 /// SNORD29 /// SNORD31 / Fold change vs veh, SNHG1 /// SNORD22 /// SNORD25 /// SNORD26 /// SNORD27 /// SNORD28 /// SNORD29 /// SNORD31 / Fold change (Aza/veh), C12orf56 (ProbeSet 11735607_a_at) / Fold change (ACY-1035/veh), C12orf56 (ProbeSet 11735607_a_at) / Fold change (Aza/veh), FGFR1OP (ProbeSet 11751329_s_at) / Fold change (ACY-1035/veh), FGFR1OP (ProbeSet 11751329_s_at) / Fold change (Aza/veh), VPS36 (ProbeSet 11739960_a_at) / Fold change (ACY-1035/veh), VPS36 (ProbeSet 11739960_a_at) / RFU SYPL1 (11715823_x_at) / Fold change /veh SYPL1 (11715823_x_at) / RFU IGFBP7 (11715501_s_at) / Fold change /veh IGFBP7 (11715501_s_at) / RFU REEP3 (11722064_at) / Fold change /veh REEP3 (11722064_at) / RFU IGLL1 (11728026_x_at) / Fold change /veh IGLL1 (11728026_x_at): dose or concentration left out as unconfirmed
Conditions: ProbeSet 11728879_at; LIST B

Nc1ccc(-c2cccs2)cc1NC(=O)c1ccc2c(c1)cc(C1CC1)n2CCN1CCOCC1 [ACY-1035]
RFU, PPP3R1: 371.71 RFU
